Data published in ChEMBL document CHEMBL3414490 (Eur J Med Chem, 2015).

Assays:
Prothrombin = Prothrombin (Homo sapiens, UniProt P00734); experiment: Inhibition of human thrombin using Ac-FVR-AMC as substrate incubated for 10 mins prior to substrate addition measured for 10 min by fluorescence assay
Plasma = experiment: Anticoagulant activity in Sprague-Dawley rat plasma assessed as thrombin time at 3 mg/ml administered for 4 days; assay type: functional
Rattus norvegicus [1] = experiment: Anticoagulant activity in Sprague-Dawley rat plasma assessed as prothrombin time at 3 mg/ml administered for 4 days; assay type: functional
Rattus norvegicus [2] = experiment: Inhibition of arterial/venous thromboembolic weight in Sprague-Dawley rat at 3 mg/ml administered for 4 days relative to control; assay type: functional
Rattus norvegicus [3] = experiment: Anticoagulant activity in Sprague-Dawley rat plasma assessed as activated partial […] time at 3 mg/ml administered for 4 days; assay type: functional
Rattus norvegicus [4] = experiment: Inhibition of thrombin-induced platelet aggregation in Sprague-Dawley rat at 3 mg/ml administered for 4 days relative to control; assay type: functional
Rattus norvegicus [5] = experiment: Anticoagulant activity in Sprague-Dawley rat plasma assessed as fibrinogen level at 3 mg/ml administered for 4 days; assay type: functional

Compound | IC50 (Prothrombin) | also measured
Cc1ccccc1N(CCC(=O)O)C(=O)c1ccc2c(c1)nc(CNc1ccc(C(=N)N)cc1F)n2C | 6.13 nM | 
CCn1c(CNc2ccc(C(=N)N)cc2F)nc2cc(C(=O)N(CCC(=O)O)c3ccc(OC)cc3)ccc21 | 23.3 nM | 
Cn1c(CNc2ccc(C(=N)N)cc2F)nc2cc(C(=O)N(CCC(=O)O)c3ccc(F)cc3)ccc21 | 5.43 nM | 
CCn1c(CNc2ccc(C(=N)N)cc2F)nc2cc(C(=O)N(CCC(=O)O)c3ccccc3F)ccc21 | 3.71 nM | 
Cn1c(CNc2ccc(C(=N)N)cc2F)nc2cc(C(=O)N(CCC(=O)O)c3ccccc3)ccc21 | 5.86 nM | 
CCn1c(CNc2ccc(C(=N)N)cc2F)nc2cc(C(=O)N(CCC(=O)O)c3ccccc3)ccc21 | 5.63 nM | 
CCCCCCOC(=O)/N=C(/N)c1ccc(NCc2nc3cc(C(=O)N(CCC(=O)OCC)c4ccccc4F)ccc3n2C)cc1 |  | TT (Plasma): 180 s; PT (Rattus norvegicus [1]): 11.82 s; inhibition (INH) (Rattus norvegicus [2]): 37%; APTT (Rattus norvegicus [3]): 24.33 s; inhibition (INH) (Rattus norvegicus [4]): 10.4%; Activity (Rattus norvegicus [5]): 1.853 g/L
CCn1c(CNc2ccc(C(=N)N)cc2F)nc2cc(C(=O)N(CCC(=O)O)c3ccc(Cl)cc3)ccc21 | 13.6 nM | 
CCCCCCOC(=O)/N=C(/N)c1ccc(NCc2nc3cc(C(=O)N(CCC(=O)OCC)c4ccccn4)ccc3n2C)c(F)c1 |  | TT (Plasma): 137.3 s; PT (Rattus norvegicus [1]): 12.28 s; inhibition (INH) (Rattus norvegicus [2]): 73%; APTT (Rattus norvegicus [3]): 25.43 s; inhibition (INH) (Rattus norvegicus [4]): 53.8%; Activity (Rattus norvegicus [5]): 1.939 g/L
Cn1c(CNc2ccc(C(=N)N)cc2F)nc2cc(C(=O)N(CCC(=O)O)c3ccccc3F)ccc21 | 4.93 nM | 
CCn1c(CNc2ccc(C(=N)N)cc2F)nc2cc(C(=O)N(CCC(=O)O)c3ccccc3OC)ccc21 | 21.6 nM | 
CCCCCCOC(=O)NC(=N)c1ccc(NCc2nc3cc(C(=O)N(CCC(=O)OCC)c4ccccn4)ccc3n2C)cc1 [DABIGATRAN ETEXILATE] |  | TT (Plasma): 180 s; PT (Rattus norvegicus [1]): 57.2 s; inhibition (INH) (Rattus norvegicus [2]): 76%; APTT (Rattus norvegicus [3]): 76.57 s; inhibition (INH) (Rattus norvegicus [4]): 92.9%; Activity (Rattus norvegicus [5]): 1.561 g/L
COc1ccc(N(CCC(=O)O)C(=O)c2ccc3c(c2)nc(CNc2ccc(C(=N)N)cc2F)n3C)cc1 | 16.3 nM | 
CCn1c(CNc2ccc(C(=N)N)cc2F)nc2cc(C(=O)N(CCC(=O)O)c3ccccc3C)ccc21 | 7.26 nM | 
Cn1c(CNc2ccc(C(=N)N)cc2F)nc2cc(C(=O)N(CCC(=O)O)c3ccccn3)ccc21 | 3.49 nM | 
COc1cccc(N(CCC(=O)O)C(=O)c2ccc3c(c2)nc(CNc2ccc(C(=N)N)cc2F)n3C)c1 | 4.84 nM | 
CCn1c(CNc2ccc(C(=N)N)cc2F)nc2cc(C(=O)N(CCC(=O)O)c3ccc(C)cn3)ccc21 | 19.2 nM | 

More lines, in order of falling IC50 (Prothrombin), values ahead:

IC50 (Prothrombin) | Compound | also measured
24 nM | Cc1ccc(N(CCC(=O)O)C(=O)c2ccc3c(c2)nc(CNc2ccc(C(=N)N)cc2F)n3C)nc1 | 
8.4 nM | CCn1c(CNc2ccc(C(=N)N)cc2F)nc2cc(C(=O)N(CCC(=O)O)c3cccc(OC)c3)ccc21 | 
4.92 nM | CCn1c(CNc2ccc(C(=N)N)cc2F)nc2cc(C(=O)N(CCC(=O)O)c3cccc(F)c3)ccc21 | 
4.9 nM | CCn1c(CNc2ccc(C(=N)N)cc2F)nc2cc(C(=O)N(CCC(=O)O)c3ccc(F)cc3)ccc21 | 
4.54 nM | Cn1c(CNc2ccc(C(=N)N)cc2F)nc2cc(C(=O)N(CCC(=O)O)c3cccc(F)c3)ccc21 | 
3.39 nM | CCn1c(CNc2ccc(C(=N)N)cc2F)nc2cc(C(=O)N(CCC(=O)O)c3ccccn3)ccc21 | 
3.23 nM | Cn1c(CNc2ccc(C(=N)N)cc2)nc2cc(C(=O)N(CCC(=O)O)c3ccccc3F)ccc21 | 
